Data reported in US9302999B2, “Substituted triazoles as herbicides” (E. I. DU PONT DE NEMOURS AND COMPANY, priority 2012, dated 2016).
Like-named read-outs stand apart in the source and are kept apart here.

Key:
Type in all cases: in vivo
[1] = tested on: ducksalad (Heteranthera limosa); test: Test C flooded paddy test: ducksalad; conditions: Heteranthera limosa, scale 0 to 100 (0 no effect, 100 complete control), read-out: Plant response rating, Ducksalad; for pest or weed control at 62 g/ha: 62 g ai/ha; for pest or weed control at 250 g/ha: 250 g ai/ha; for pest or weed control at 125 g/ha: 125 g ai/ha
How it was run: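 Plants at 2-leaf stage in pots flooded 3 cm above soil; compounds applied directly into the paddy water, depth maintained. Visual rating against controls after 13–15 days in greenhouse, scale 0 (no effect) to 100 (complete control).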

[2] = tested on: bromegrass, downy (downy bromegrass, Bromus tectorum); test: Test D pre-/postemergence: bromegrass, downy
Source text: (§1) Seeds of plant species selected from bluegrass (annual bluegrass, Poa annua), blackgrass (Alopecurus myosuroides), canarygrass (Phalaris minor), chickweed (common chickweed, Stellaria media), galium (catchweed bedstraw, Galium aparine), bromegrass, downy (downy bromegrass, Bromus tectorum), field poppy (Papaver rhoeas), field violet (Viola arvensis), foxtail, green (green foxtail, Setaria viridis), deadnettle (henbit deadnettle, Lamium amplexicaule), ryegrass, Italian (Italian ryegrass, Lolium multiflorum), kochia (Kochia scoparia), lambsquarters (Chenopodium album), oilseed rape (Brassica napus), pigweed (Amaranthus retroflexus), Russian thistle (Salsola iberica), chamomile (scentless chamomile, Matricaria inodora), speedwell (bird's-eye speedwell, Veronica persica), barley, spring (spring barley, Hordeum vulgare), wheat, spring (spring wheat, Triticum aestivum), buckwheat, wild (wild buckwheat, Polygonum convolvulus), mustard, wild (wild mustard, Sinapis arvensis), oat, wild (wild oat, Avena fatua), radish, wild (wild radish, Raphanus raphanistrum), windgrass (Apera spica-venti), barley, winter (winter barley, Hordeum vulgare), and wheat, winter (winter wheat, Triticum aestivum) were planted into a silt loam soil and treated preemergence with test chemicals formulated in a non-phytotoxic solvent mixture which included a surfactant. At the same time, these same crop and weed species were planted in pots containing the planting medium comprising spaghnum peat moss, vermiculite, wetting agent and starter nutrients and treated with postemergence applications of the test chemicals formulated in the same manner. Plants ranged in height from 2 to 18 cm (1- to 4-leaf stage).
(§2) Treated plants and controls were maintained in a controlled growth environment for 14 to 21 days after which time all species were compared to controls and visually evaluated. Plant response ratings, summarized in Table D, are based on a scale of 0 to 100 where 0 is no effect and 100 is complete control. A dash (-) response means no test result.

[3] = tested on: field violet (Viola arvensis); test: Test D pre-/postemergence: field violet
Source text: as §1, §2

[4] = tested on: barley, spring (spring barley, Hordeum vulgare); test: Test D pre-/postemergence: barley, spring
Source text: as §1, §2

[5] = tested on: radish, wild (wild radish, Raphanus raphanistrum); test: Test D pre-/postemergence: radish, wild
Source text: as §1, §2

[6] = Flood (flooded paddy test), visual rating after 13 to 15 days
[7] = Postemergence, 31 g ai/ha, scale 0 to 100 (0 no effect, 100 complete control)
[8] = Postemergence, 62 g ai/ha, scale 0 to 100 (0 no effect, 100 complete control)
[9] = Postemergence, 125 g ai/ha, scale 0 to 100, 0 no effect, 100 complete control
[10] = Postemergence, 250 g ai/ha, scale 0 to 100 (0 no effect, 100 complete control)
[11] = Preemergence, 31 g ai/ha, scale 0 to 100, 0 no effect, 100 complete control
[12] = Preemergence, 62 g ai/ha, scale 0 to 100
[13] = Preemergence, 125 g ai/ha, scale 0 to 100
[14] = Preemergence, 250 g ai/ha, scale 0 to 100
[15] = Postemergence, 16 g ai/ha, scale 0 to 100
[16] = Preemergence, 16 g ai/ha, scale 0 to 100, 0 no effect, 100 complete control

| Compound | pest or weed control at 62 g/ha [1, 6] [%] | pest or weed control at 250 g/ha [1, 6] [%] | Plant response rating: Bromegrass, Downy [2, 7] | Plant response rating: Bromegrass, Downy [2, 8] | Plant response rating: Bromegrass, Downy [2, 9] | Plant response rating: Bromegrass, Downy [2, 10] | Plant response rating, Bromegrass, Downy [2, 11] | Plant response rating, Bromegrass, Downy [2, 12] | Plant response rating, Bromegrass, Downy [2, 13] | Plant response rating: Field Violet [3, 7] | Plant response rating: Field Violet [3, 8] | Plant response rating: Field Violet [3, 9] | Plant response rating: Field Violet [3, 10] | Plant response rating: Barley, Spring [4, 7] | Plant response rating: Barley, Spring [4, 8] | Plant response rating: Barley, Spring [4, 9] | Plant response rating: Barley, Spring [4, 10] | Plant response rating: Radish, Wild [5, 7] | Plant response rating: Radish, Wild [5, 8] | Plant response rating: Radish, Wild [5, 9] | also measured |
| --- | --- | --- | --- | --- | --- | --- | --- | --- | --- | --- | --- | --- | --- | --- | --- | --- | --- | --- | --- | --- | --- |
| Cc1nn(-c2ccc(C(F)(F)F)cc2)nc1Oc1csc(C(F)(F)F)c1 [Compound 1, 4-methyl-2-[4-(trifluoromethyl)phenyl]-5-[[5-(trifluoromethyl)-3-thienyl]oxy]-2H-1,2,3-triazole] | 0 | 0 |  |  |  |  |  |  |  |  |  |  |  |  |  |  |  |  |  |  |  |
| FC(F)(F)COc1nn(-c2ccc(C(F)(F)F)cc2)nc1Cc1ccnc(C(F)(F)F)c1 [Compound 14, 4-[[5-(2,2,2-trifluoroethoxy)-2-[4-(trifluoromethyl)phenyl]-2H-1,2,3-triazol-4-yl]methyl]-2-(trifluoromethyl)pyridine] | 40 | 60 | 15 | 20 | 30 | 40 | 0 | 10 | 20 | 100 | 100 | 100 | 100 | 25 | 25 | 30 | 40 | 70 | 85 | 100 | Plant response rating, Bromegrass, Downy [2, 14]: 30; Plant response rating, Field Violet [3, 11]: 75; Plant response rating, Field Violet [3, 12]: 90; Plant response rating, Field Violet [3, 13]: 95; Plant response rating, Field Violet [3, 14]: 95; Plant response rating, Barley, Spring [4, 11]: 0; Plant response rating, Barley, Spring [4, 12]: 10; Plant response rating, Barley, Spring [4, 13]: 15; Plant response rating, Barley, Spring [4, 14]: 20; Plant response rating: Radish, Wild [5, 10]: 100; Plant response rating, Radish, Wild [5, 12]: 40; Plant response rating, Radish, Wild [5, 13]: 100; Plant response rating, Radish, Wild [5, 14]: 100 |
| COc1nn(-c2ccc(C(F)(F)F)cc2)nc1Cc1ccnc(C(F)(F)F)c1 [Compound 15, 4-[[5-methoxy-2-[4-(trifluoromethyl)phenyl]-2H-1,2,3-triazol-4-yl]methyl]-2-(trifluoromethyl)pyridine] | 40 | 60 | 10 | 10 | 20 | 40 | 0 | 0 | 0 | 100 | 100 | 100 | 100 | 15 | 25 | 30 | 40 | 100 | 100 | 100 | Plant response rating, Bromegrass, Downy [2, 15]: 5; Plant response rating, Bromegrass, Downy [2, 14]: 40; Plant response rating, Field Violet [3, 15]: 80; Plant response rating, Barley, Spring [4, 15]: 10; Plant response rating, Barley, Spring [4, 11]: 0; Plant response rating, Barley, Spring [4, 12]: 0; Plant response rating, Barley, Spring [4, 13]: 10; Plant response rating, Barley, Spring [4, 14]: 15; Plant response rating: Radish, Wild [5, 10]: 100; Plant response rating, Radish, Wild [5, 15]: 100; Plant response rating, Radish, Wild [5, 11]: 0; Plant response rating, Radish, Wild [5, 12]: 0; Plant response rating, Radish, Wild [5, 13]: 100; Plant response rating, Radish, Wild [5, 14]: 100 |
| COCc1nn(-c2ccc(C(F)(F)F)cc2)nc1Oc1cccc(OC(F)(F)F)c1 [Compound 115, 4-(methoxymethyl)-5-[3-(trifluoromethoxy)phenoxy]-2-[4-(trifluoromethyl)phenyl]-2H-1,2,3-triazole] |  | 20 |  |  |  |  |  |  |  |  |  |  |  |  |  |  |  |  |  |  | pest or weed control at 125 g/ha [1, 6]: 0%; pest or weed control at 62 g/ha ([1]; Flood): 0% |
| FCc1nn(-c2ccc(C(F)(F)F)cc2)nc1Oc1cccc(OC(F)(F)F)c1 [Compound 116, 4-(fluoromethyl)-5-[3-(trifluoromethoxy)phenoxy]-2-[4-(trifluoromethyl)phenyl]-2H-1,2,3-triazole] |  | 50 |  |  |  |  |  |  |  |  |  |  |  |  |  |  |  |  |  |  | pest or weed control at 125 g/ha [1, 6]: 30%; pest or weed control at 62 g/ha ([1]; Flood): 0% |
| COc1nn(-c2ccc(C(F)(F)F)cc2)nc1Cc1ccnc(C(F)F)c1 [Compound 138] |  |  | 20 | 30 | 40 | 50 |  |  |  | 70 | 75 | 85 | 90 | 20 | 25 | 35 | 40 | 80 | 95 | 100 | Plant response rating, Bromegrass, Downy [2, 15]: 10; Plant response rating, Field Violet [3, 15]: 60; Plant response rating, Barley, Spring [4, 15]: 10; Plant response rating: Radish, Wild [5, 10]: 100; Plant response rating, Radish, Wild [5, 15]: 80 |
| Cc1nn(-c2ccc(F)c(C(F)(F)F)c2)nc1Cc1ccnc(C(F)(F)F)c1 [Compound 156] |  |  | 10 | 15 | 35 |  | 5 | 20 | 95 | 95 | 95 | 95 |  | 20 | 25 | 30 |  | 85 | 100 | 100 | Plant response rating, Bromegrass, Downy [2, 15]: 10; Plant response rating, Bromegrass, Downy [2, 16]: 0; Plant response rating, Field Violet [3, 15]: 95; Plant response rating, Field Violet [3, 16]: 60; Plant response rating, Field Violet [3, 11]: 95; Plant response rating, Field Violet [3, 12]: 100; Plant response rating, Field Violet [3, 13]: 100; Plant response rating, Barley, Spring [4, 15]: 15; Plant response rating, Barley, Spring [4, 16]: 5; Plant response rating, Barley, Spring [4, 11]: 5; Plant response rating, Barley, Spring [4, 12]: 5; Plant response rating, Barley, Spring [4, 13]: 15; Plant response rating, Radish, Wild [5, 15]: 65; Plant response rating, Radish, Wild [5, 16]: 5; Plant response rating, Radish, Wild [5, 11]: 10; Plant response rating, Radish, Wild [5, 12]: 100; Plant response rating, Radish, Wild [5, 13]: 100 |
